Source: patent publication US20050250801A1, “Method of treating cancer with azaspirane compositions” (priority 2003, published 2005)
Where two headings read alike, the source gives them in different places.

Experiments:
CaCo-2 cells [1] = experiment: Inhibition of CaCo-2 colon carcinoma cell proliferation (WST-1, Example 1); type: cell-based; details: Homo sapiens, 24 hours incubation
Experimental: The effect of N,N,-diethyl-8,8-dipropyl-2-azaspiro[4,5]decane-2-propanamine dimaleate (Compound 1) on proliferation of human colon carcinoma cells T84 and CaCo-2 was evaluated in the following manner. Cell proliferation was measured by WST-1 dye conversion to Formazan assay using the proliferation kit from BioVision, CA. The procedure used was essentially as described in the manufacture's instructions. Briefly, cells were grown for 7 days until they formed semi-confluent monolayers. On day 7, cells were trypsinized and resuspended in 96-well plates at a concentration of approximately 40,000 cells/well and allowed to grow for 24 hours at 37° C.
Subsequently, fresh media containing increasing concentrations of Compound 1, as indicated in the FIG. 1, were added and assay plates were further incubated for an additional period of 24 hours. A solution of 5 μl of WST-1 dye per well was added and plates were read after 4 hours at 440 and 600 nm using an ELISA plate reader. The absorbance at 440 minus that at 600 nm is directly proportion to the number of proliferating cells. All samples were measured in triplicate and results were expressed as an average of three determinations.

Various Tumor Cell Lines = experiment: NCI in vitro SRB tumor cell line assay, panel summary; type: cell-based
Experimental: (§1) An in vitro assay which tested the ability of N,N,-diethyl-8,8-dipropyl-2-azaspiro[4,5]decane-2-propanamine dimaleate (Compound 1) to inhibit the growth of known cancer cell lines was performed by the National Cancer Institute in accordance with standard procedures. See: Lin, Z. X., Hoult, J. R., and Raman, A. Sulphorhodamine B assay for measuring proliferation of a pigmented melanocyte cell line and its application to the evaluation of crude drugs used in the treatment of vitiligo. J Ethnopharmacol. 66: 141-150, 1999. Briefly, selected tumor cell lines were cultured in media containing five different concentrations of Compound 1. After 48 hours of continuous exposure, a sulforhodamine B (SRB) assay was used to estimate cell viability or growth via optical measurements.
(§2) From the measurements, the following values were determined: 1) the concentration of Compound 1 at which a tumor cell growth inhibition of 50% (relative to control) occurs (GI50), 2) the concentration of Compound 1 at which no growth occurs (total growth inhibition, TGI), and 3) the concentration of Compound 1 at which the […] (LC 50). […] FIG. 6 illustrates, graphically, tumor cell growth as a function of Compound 1 concentration of the scanned tumor cell lines.

CaCo-2 cells [2] = experiment: Induction of apoptosis, DNA fragmentation analysis, CaCo-2; type: cell-based, human; details: 12 hours treatment
Experimental: (§3) T84, CaCo-2 and HUVEC cells, respectively, were grown in 100 mm dishes for 7-9 days, culture media for HUVEC was EGM-2 (Clonetics, BioWhitaker Co.), until they reached semi-confluency. Cell monolayers were then treated for 12 hours (CaCo-2 and T84) and 16 hours (HUVEC), respectively, at the indicated concentrations of N,N,-diethyl-8,8-dipropyl-2-azaspiro[4,5]decane-2-propanamine dimaleate (Compound 1) in culture media. Cells were collected by trypsinization and the apoptotic DNA was isolated from these cells following the instructions of the DNA fragmentation analysis kit (Boehringer Mannheim Corp., Indianapolis, Ind.). The apoptotic DNA was evaluated using 1.5% agarose gel electrophoresis followed by staining with ethidium bromide. M denotes the lane containing molecular weight markers of DNA.

HOP-62 = experiment: NCI in vitro SRB assay, Non-Small Cell Lung Cancer; type: cell-based; details: for CC50 / GI50: Homo sapiens
Experimental: as §1, §2

NCI-H23 = experiment: NCI in vitro SRB assay, Non-Small Cell Lung Cancer; type: cell-based; details: for CC50 / GI50: Homo sapiens
Experimental: as §1, §2

CCRF-CEM = experiment: NCI in vitro SRB assay, Leukemia; type: cell-based; details: for GI50 / CC50: Homo sapiens
Experimental: as §1, §2

RPMI-8226 = experiment: NCI in vitro SRB assay, Leukemia; type: cell-based; details: for CC50 / GI50: Homo sapiens
Experimental: as §1, §2

HUVEC cells = experiment: Induction of apoptosis, DNA fragmentation analysis, HUVEC; type: cell-based, human; details: 16 hours treatment
Experimental: as §3

[3] = HOP-62, Log10 conc -4.0 Moles/L
[4] = HOP-62, Log10 conc -5.0 Moles/L
[5] = HOP-62, Log10 conc -6.0 Moles/L
[6] = HOP-62, Log10 conc -7.0 Moles/L
[7] = HOP-62, Log10 conc -8.0 Moles/L
[8] = NCI-H23, Log10 conc -4.0 Moles/L
[9] = NCI-H23, Log10 conc -5.0 Moles/L
[10] = NCI-H23, Log10 conc -6.0 Moles/L
[11] = NCI-H23, Log10 conc -7.0 Moles/L
[12] = NCI-H23, Log10 conc -8.0 Moles/L
[13] = RPMI-8226, Log10 conc -4.0 Moles/L
[14] = RPMI-8226, Log10 conc -5.0 Moles/L
[15] = RPMI-8226, Log10 conc -6.0 Moles/L
[16] = RPMI-8226, Log10 conc -7.0 Moles/L
[17] = RPMI-8226, Log10 conc -8.0 Moles/L

CCCC1(CCC)CCC2(CCN(CCCN(CC)CC)C2)CC1.O=C(O)/C=C\C(=O)O.O=C(O)/C=C\C(=O)O [Compound 1, N,N,-diethyl-8,8-dipropyl-2-azaspiro[4,5]decane-2-propanamine dimaleate]
IC50 (CaCo-2 cells [1]): 625 to 1250 nM
Log10 GI50, MG_MID (Various Tumor Cell Lines; all cell lines of Table 2): −5.93
Log10 TGI, Delta (Various Tumor Cell Lines; all cell lines of Table 2): 1.18
Log10 TGI, MG_MID (Various Tumor Cell Lines; all cell lines of Table 2): −5.45
Log10 TGI, Range (Various Tumor Cell Lines; all cell lines of Table 2): 2.62
CC50 (Various Tumor Cell Lines; read-out: Log10 LC50, MG_MID (converted)): 8710 nM
DNA ladder formation (apoptosis) (CaCo-2 cells [2]): formation of DNA laddering in a dose-dependent manner
Log10 TGI (HOP-62; HOP-62): −5.54
TGI (HOP-62; HOP-62): 2910 nM
Mean Optical Densities (HOP-62; [3]): 0.090
Percent Growth (HOP-62; [3]): −79%
Mean Optical Densities (HOP-62; [4]): 0.056
Percent Growth (HOP-62; [4]): −87%
Mean Optical Densities (HOP-62; [5]): 0.693
Percent Growth (HOP-62; [5]): 75%
Mean Optical Densities (HOP-62; [6]): 0.757
Percent Growth (HOP-62; [6]): 93%
Mean Optical Densities (HOP-62; [7]): 0.711
Percent Growth (HOP-62; [7]): 80%
CC50 (HOP-62; HOP-62, read-out: LC50): 5930 nM
CC50 (HOP-62; HOP-62, read-out: Log10 LC50 (converted)): 5890 nM
GI50 (HOP-62; HOP-62, read-out: GI50): 1430 nM
GI50 (HOP-62; HOP-62, read-out: Log10 GI50 (converted)): 1450 nM
CC50 (NCI-H23; NCI-H23, read-out: LC50): 6320 nM
CC50 (NCI-H23; NCI-H23, read-out: Log10 LC50 (converted)): 6310 nM
GI50 (NCI-H23; NCI-H23, read-out: GI50): 1960 nM
GI50 (NCI-H23; NCI-H23, read-out: Log10 GI50 (converted)): 1950 nM
Log10 TGI (NCI-H23; NCI-H23): −5.45
TGI (NCI-H23; NCI-H23): 3520 nM
Mean Optical Densities (NCI-H23; [8]): 0.030
Percent Growth (NCI-H23; [8]): −92%
Mean Optical Densities (NCI-H23; [9]): 0.040
Percent Growth (NCI-H23; [9]): −89%
Mean Optical Densities (NCI-H23; [10]): 0.822
Percent Growth (NCI-H23; [10]): 107%
Mean Optical Densities (NCI-H23; [11]): 0.814
Percent Growth (NCI-H23; [11]): 105%
Mean Optical Densities (NCI-H23; [12]): 0.728
Percent Growth (NCI-H23; [12]): 85%
Log10 TGI (CCRF-CEM): >−4.00
TGI (CCRF-CEM): >100000 nM
GI50 (CCRF-CEM; read-out: GI50): 1090 nM
CC50 (CCRF-CEM; read-out: LC50): > 100000 nM
GI50 (CCRF-CEM; read-out: Log10 GI50 (converted)): 1100 nM
CC50 (CCRF-CEM; read-out: Log10 LC50 (converted)): > 100000 nM
Mean Optical Densities (CCRF-CEM; Log10 conc -4.0 Moles/L): 0.115
Percent Growth (CCRF-CEM; Log10 conc -4.0 Moles/L): 6%
Mean Optical Densities (CCRF-CEM; Log10 conc -5.0 Moles/L): 0.158
Percent Growth (CCRF-CEM; Log10 conc -5.0 Moles/L): 13%
Mean Optical Densities (CCRF-CEM; Log10 conc -6.0 Moles/L): 0.409
Percent Growth (CCRF-CEM; Log10 conc -6.0 Moles/L): 51%
Mean Optical Densities (CCRF-CEM; Log10 conc -7.0 Moles/L): 0.597
Percent Growth (CCRF-CEM; Log10 conc -7.0 Moles/L): 81%
Mean Optical Densities (CCRF-CEM; Log10 conc -8.0 Moles/L): 0.611
Percent Growth (CCRF-CEM; Log10 conc -8.0 Moles/L): 83%
CC50 (RPMI-8226; RPMI-8226, read-out: LC50): > 100000 nM
CC50 (RPMI-8226; RPMI-8226, read-out: Log10 LC50 (converted)): > 100000 nM
GI50 (RPMI-8226; RPMI-8226, read-out: GI50): 283 nM
GI50 (RPMI-8226; RPMI-8226, read-out: Log10 GI50 (converted)): 282 nM
Log10 TGI (RPMI-8226; RPMI-8226): −4.53
TGI (RPMI-8226; RPMI-8226): 29800 nM
Mean Optical Densities (RPMI-8226; [13]): 0.185
Percent Growth (RPMI-8226; [13]): −3%
Mean Optical Densities (RPMI-8226; [14]): 0.218
Percent Growth (RPMI-8226; [14]): 3%
Mean Optical Densities (RPMI-8226; [15]): 0.371
Percent Growth (RPMI-8226; [15]): 21%
Mean Optical Densities (RPMI-8226; [16]): 0.843
Percent Growth (RPMI-8226; [16]): 74%
Mean Optical Densities (RPMI-8226; [17]): 0.918
Percent Growth (RPMI-8226; [17]): 83%
DNA ladder formation (apoptosis) (HUVEC cells): formation of DNA laddering in a dose-dependent manner
